# Source: patent publication US10993988B2, “Anthelmintic combinations and methods of use thereof” (BOEHRINGER INGELHEIM ANIMAL HEALTH USA INC., priority 2015, dated 2021)
# Read-outs that look alike come from different tables or passages of the source.
# Assays:
# MP3 strain of D. immitis = conditions: cited from earlier work
# [1] = tested on: JYD-34 isolate of Dirofilaria immitis; assay: Efficacy of ivermectin and emodepside, separately and in combination, against induced Dirofilaria immitis infection in dogs (live worm counts at necropsy); conditions: in vivo, po
# [2] = normal prophylaxis regimens, recent reports
Molecule,Efficacy against MP3 strain (MP3 strain of D. immitis; [2]),Efficacy against MP3 strain (MP3 strain of D. immitis; in vivo),Efficacy [1]
CO[C@H]1C[C@H](O[C@@H]2/C(C)=C/C[C@@H]3C[C@@H](C[C@]4(CC[C@H](C)[C@@H](C5CCCCC5)O4)O3)OC(=O)[C@@H]3C=C(C)/C(=N/O)[C@H]4OC/C(=C\C=C\[C@@H]2C)[C@]43O)O[C@@H](C)[C@@H]1O [selamectin],incomplete efficacy,,
milbemycin oxime,incomplete efficacy,,
"CC[C@H](C)[C@H]1O[C@]2(CC[C@@H]1C)C[C@@H]1C[C@@H](C/C=C(\C)[C@@H](O[C@H]3C[C@H](OC)[C@@H](O[C@H]4C[C@H](OC)[C@@H](O)[C@H](C)O4)[C@H](C)O3)[C@@H](C)/C=C/C=C3\CO[C@@H]4[C@H](O)C(C)=C[C@@H](C(=O)O1)[C@]34O)O2 [ivermectin oral solution, ivermectin]",,incomplete efficacy,Less than 50%
